Literature values as cited in patent publication US7671089B2 (XenoPort, Inc., priority 2004, dated 2010).

Tests used:
[1] = following oral administration
[2] = rats

| duration time [1] | levels of levodopa [1] | absorption following rectal administration [2] | Structure (SMILES) |
| --- | --- | --- | --- |
| prolonged | low | – | CC(C)(C)C(=O)Oc1ccc(C[C@H](N)C(=O)O)cc1O [NB-355] |
| – | – | poor | C[C@@](Cc1ccc(O)c(O)c1)(NN)C(=O)O [carbidopa] |
